Measurements reported in patent US8227464B2, “Substituted oxazolidinone derivatives” (Concert Pharmaceuticals, Inc., priority 2007, dated 2012).
Like-named read-outs stand apart in the source and are kept apart here.

Assays:
[1] = Pharmacokinetics in male Sprague Dawley rats following oral co-dosing; format: in vivo
Description: Separate solutions of rivaroxaban and Compound 101 were prepared using 20% ethanol, 60% PEG400, 20% dimethyl isosorbide to provide a concentration of 10 mg/mL. The concentration of each solution was confirmed by HPLC prior to further use. A combination dose of rivaroxaban and Compound 101 was prepared by mixing the two solutions in a 1.09:1 ratio to yield a final concentration of 5.45 mg/mL of rivaroxaban and 5 mg/mL for Compound 101.
Two male Sprague Dawley rats were dosed by oral gavage with the combination dose containing rivaroxaban (5.45 mg/kg) and compound 101 (5 mg/kg). Blood samples (approximately 0.25 mL) were collected retro-orbitally following oral administration at 0 minutes (min) (pre-dose), 5 min, 15 min, 30 min, 1 hr, 1.5 hr, 2 hr, 4 hr, 6 hr, 8 hr, 10 hr and 24 hr post-dose. Blood samples were stored on ice and centrifuged within 15 minutes of collection to harvest plasma. The plasma was decanted immediately and frozen at −20° C. until analysis.
Analyses of plasma samples were performed using a high performance liquid chromatography/mass spectrometry (HPLC/MS/MS) method. The LC system comprised an Agilent (Agilent Technologies Inc. USA) liquid chromatograph equipped with an isocratic pump (1100 series), an autosampler (1100 series) and a degasser (1100 series). Mass spectrometric analysis was performed using an API3000 (triple-quadrupole) instrument from AB Inc (Canada) with an ESI interface. The data acquisition and control system were created using Analyst 1.4 software from ABI Inc. Data for rivaroxaban was corrected by multiplying by a factor of 0.91 to compensate for the 9% increased amount administered as compared to Compound 101.

[2] = major in vivo metabolites of rivaroxaban; Weinz et al. 2004; cited from earlier work
[3] = use of rivaroxaban; Kubitza et al. 2005; cited from earlier work
[4] = male Sprague Dawley rats, oral gavage co-dose: rivaroxaban 5.45 mg/kg (data multiplied by 0.91) and Compound 101 5 mg/kg, plasma

In the case of `[2H]C1([2H])OC([2H])([2H])C([2H])([2H])N(c2ccc(N3C[C@H](CNC(=O)c4ccc(Cl)s4)OC3=O)cc2)C1=O` [Compound 101, (S)-5-chloro-N-((2-oxo-3-(4-(3-oxo-2,2,5,5,6,6-d6-morpholino)phenyl)oxazolidin-5-yl)methyl)thiophene-2-carboxamide], the “AUC∞” value [1, 4] is reported as 3424.33 ng·h/mL, the Cmax [1, 4] is reported as 962 ng/mL and the “increase in AUC as compared to rivaroxaban” value ([1]; rats, oral co-dosing) is reported as “greater than 16%”. The “increase in Cmax as compared to rivaroxaban” value ([1]; rats, oral co-dosing) was “greater than 14%”.
For `O=C(O)CNC(=O)c1ccc(Cl)s1` [Compound M4], the activity of metabolite [2] is given as “Neither metabolite is active”.
In the case of `O=C(NC[C@H]1CN(c2ccc(N3CCOCC3=O)cc2)C(=O)O1)c1ccc(Cl)s1` [Rivaroxaban, 5-chloro-N-[2-oxo-3-[4-(3-oxomorpholin-4-yl)phenyl]oxazolidin-5(S)-ylmethyl]thiophene-2-carboxamide, reference compound], the AUC(0-inf) ([1]; rat, male Sprague Dawley rats, oral gavage co-dose: rivaroxaban 5.45 mg/kg (data multiplied by 0.91) and Compound 101 5 mg/kg, plasma) is listed as 2930 ng·h/mL, the Cmax ([1]; rat, male Sprague Dawley rats, oral gavage co-dose: rivaroxaban 5.45 mg/kg (data multiplied by 0.91) and Compound 101 5 mg/kg, plasma, read-out: Cmax) is listed as 842 ng/mL and the adverse events [3] is listed as “ageusia (loss of taste), ecchymosis (bruising) and headache”.
